US5773430A, “Serine proteinase inhibitory activity by hydrophobic tetracycline” (Research Foundation of State University of New York, priority 1997, dated 1998)
“Also recorded” adds a separate entry of the source. Read-outs that look alike come from different tables or passages of the source.

Experiments:
[1] = system: human neutrophils (live PMN's); assay: Neutrophil (PMN + 0.5 nM PMA)-mediated R22-ECM hydrolysis (3H-proline cpm released in 6 h); format: cell-based; conditions: for ECM HYDROLYSIS (% CONTROL) / activity at 5 µM / activity at 25 µM / activity at 50 µM: control = hydrolysis in absence of any inhibitor normalized to 100%, 6 h at 37° C.; for activity at 5 µM / activity at 25 µM / activity at 50 µM: Homo sapiens, Neutrophil; for inhibition of ECM degradation, in words: 5-50 μM, Table 1 and FIG. 1
Description: The activity of various tetracyclines was investigated employing an in vitro assay of inflammatory tissue injury in which human neutrophils are allowed to degrade a biosynthetically prepared complete interstitial stromal extracellular matrix (ECM). A neutrophil is one type of leukocyte (polymorphonuclear leukocyte). […] E. J. Roemer, K. J. Stanton, and S. R. Simon, "In Vitro Assay Systems for Inflammatory Cell-Mediated Damage to Interstitial Extracellular Matrix," In Vitro Toxicol. 7,75-81 (1994); E. J. Roemer, K. J. Stanton, and S. R. Simon, "In Vitro Assay Systems for Cell Interactions With Interstitial Extracellular Matrix," In Vitro Toxicol. 7,209-224 (1994).
The serine proteinase inhibiting activity of tetracyclines was tested using an in vitro assay of inflammatory tissue injury in which human neutrophils (live PMN's) were allowed to degrade a biosynthetically prepared complete interstitial stromal extracellular matrix (ECM) produced by cultured R22 rat heart smooth muscle cells as described by Roemer et al. (E. J. Roemer, K. J. Stanton, and S. R. Simon, "In Vitro Assay Systems for Inflammatory Cell-Mediated Damage to Interstitial Extracellular Matrix," In Vitro Toxicol. 7,75-81 (1994); E. J. Roemer, K. J. Stanton, and S. R. Simon, "In Vitro Assay Systems for Cell Interactions With Interstitial Extracellular Matrix," In Vitro Toxicol. 7,209-224 (1994)). Ten different chemically modified tetracyclines (CMTs) designated CMT-1 through CMT-10 and doxycycline, at concentrations ranging from 5 μM to 50 μM, were added to the ECM simultaneously with a suspension of 2×10^6 viable human PMN/mL in Hank's balanced salts solution (HBSS). In these studies, the ECM was metabolically radiolabeled with ^3 H-proline, and counts solubilized after six hours of incubation were measured and compared with counts released after incubation with PMN alone.

[2] = biological target: T1, human leukocyte elastase (HLE) (Homo sapiens, UniProt P08246); assay: HLE amidolytic activity (methoxysuccinyl-Ala-Ala-Pro-Val-p-nitroanilide); format: biochemical
T1 sequence (P08246 30-267): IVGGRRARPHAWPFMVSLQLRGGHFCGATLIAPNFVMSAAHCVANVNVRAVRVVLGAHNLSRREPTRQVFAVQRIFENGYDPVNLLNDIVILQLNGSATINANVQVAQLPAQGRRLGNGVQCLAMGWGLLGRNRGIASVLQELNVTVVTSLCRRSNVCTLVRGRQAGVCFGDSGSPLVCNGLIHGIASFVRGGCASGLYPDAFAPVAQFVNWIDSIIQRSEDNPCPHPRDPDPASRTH
Description: This oligopeptide is generally assumed to occupy the first five subsites of the extended substrate binding domain in HLE.
To avoid time-dependent adsorption of HLE onto the wells of the 96-well microplates used in the amidolytic assays, the plates were pretreated with a solution of 0.2% bovine serum albumin. […] The […] concentration at which the Dixon plots intersect is a measure of Ki for the inhibitor.
The inhibitory activity of doxycycline towards amidolysis of methoxysuccinyl-Ala-Ala-Pro-Val-p-nitroanilide by HLE was also determined in the presence of 2% DMSO and no detergent, as described above for CMT-3.

leukocyte elastase = biological target: T2, leukocyte elastase (Homo sapiens, UniProt P08246); assay: Leukocyte elastase inhibitory activity; format: biochemical
T2 sequence (P08246 30-247): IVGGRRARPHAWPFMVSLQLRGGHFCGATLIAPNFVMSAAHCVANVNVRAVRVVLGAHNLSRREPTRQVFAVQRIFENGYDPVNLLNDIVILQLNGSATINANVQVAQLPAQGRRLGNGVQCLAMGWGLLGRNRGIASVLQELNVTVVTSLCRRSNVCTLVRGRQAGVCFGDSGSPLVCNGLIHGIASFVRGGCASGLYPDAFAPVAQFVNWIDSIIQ

MMP-8 = conditions: in vitro; read-out: K1, inhibition of MMP-8 activity in vitro; cited from earlier work
[3] = system: human neutrophils (live PMN's); conditions: cited from earlier work

Molecule | ECM HYDROLYSIS (% CONTROL) ([1]; 5 μm) | ECM HYDROLYSIS (% CONTROL) ([1]; 25 μm) | ECM HYDROLYSIS (% CONTROL) ([1]; 50 μm) | potency as inhibitors of the amidolytic activity of HLE, in words [2] | also measured
CC1(O)c2cccc(O)c2C(=O)C2=C(O)C3(O)C(=O)C(C(N)=O)=C(O)CC3CC21 (centres unmarked) [CMT-1, 4-de(dimethylamino)tetracycline] | 93 | 95 | 90 | – | –
CN(C)C1C(=O)C(C#N)=C(O)C2(O)C(=O)C3=C(O)c4c(O)cccc4C(C)(O)C3CC12 (centres unmarked) [CMT-2, tetracyclinonitrile] | – | – | – | – | activity at 5 µM ([1]; 5 μm): 91%; activity at 25 µM ([1]; 25 μm): 95%; activity at 50 µM ([1]; 50 μm): 100%
CC1(O)c2c(Cl)ccc(O)c2C(=O)C2=C(O)C3(O)C(=O)C(C(N)=O)=C(O)CC3CC21 (centres unmarked) [CMT-4, 7-chloro-4-de(dimethylamino)tetracycline] | 90 | 98 | 130 | – | –
CC1(O)c2cccc(O)c2C(=O)C2=C(O)C3(O)C(=O)C(C(N)=O)=C(O)C(O)C3CC21 (centres unmarked) [CMT-6, 4-hydroxy-4-de(dimethylamino)tetracycline] | 109 | 101 | 97 | – | –
CC1(O)c2cccc(O)c2C(=O)C2=C(O)C3C(=O)C(C(N)=O)=C(O)CC3CC21 (stereo not drawn) [CMT-7, 4-de(dimethylamino)-12α-deoxytetracycline] | 97 | 84 | 100 | – | –
C[C@H]1c2cccc(O)c2C(O)=C2C(=O)[C@]3(O)C(O)=C(C(N)=O)C(=O)C[C@@H]3[C@@H](O)[C@@H]21 [CMT-8, 6-deoxy-5α-hydroxy-4-de(dimethylamino)tetracycline] | 96 | 82 | 57 | – | inhibition of ECM degradation, in words [1]: showed some inhibition of ECM degradation
Cc1c2c(c(O)c3c(O)cccc13)C(=O)C1C(O)=C(C(N)=O)C(=O)CC1C2 (stereo not drawn) [CMT-9, 4-de(dimethylamino)-12α-deoxyanhydrotetracycline] | – | – | – | – | activity at 5 µM ([1]; 5 μm): 88%; activity at 25 µM ([1]; 25 μm): 215%; activity at 50 µM ([1]; 50 μm): 190%
CN(C)c1ccc(O)c2c1C[C@H]1C[C@H]3CC(O)=C(C(N)=O)C(=O)[C@@]3(O)C(O)=C1C2=O [CMT-10, 4-de(dimethylamino)minocycline] | – | – | – | – | inhibition of ECM degradation, in words [1]: showed some inhibition of ECM degradation; activity at 5 µM ([1]; 5 μm): 101%; activity at 25 µM ([1]; 25 μm): 85%; activity at 50 µM ([1]; 50 μm): 80%
Cc1c2c(c(O)c3c(O)ccc(Cl)c13)C(=O)C1(O)C(O)=C(C(N)=O)C(=O)C(N(C)C)C1C2 (centres unmarked) [anhydrochlorotetracycline] | – | – | – | comparably low or no potency | –
CN(C)[C@@H]1C(O)=C(C(N)=O)C(=O)[C@@]2(O)C(O)=C3C(=O)c4c(O)ccc(Cl)c4[C@@](C)(O)[C@H]3C[C@@H]12 [chlorotetracycline] | – | – | – | comparably low or no potency | –
C[C@H]1c2cccc(O)c2C(=O)C2=C(O)[C@]3(O)C(=O)C(C(N)=O)=C(O)[C@@H](N(C)C)[C@@H]3[C@@H](O)[C@@H]21 [doxycycline] | – | – | – | only very weak inhibition; also recorded: only a very weak inhibitor of HLE | leukocyte elastase inhibitory activity, in words (leukocyte elastase): do not exhibit substantial leukocyte elastase inhibitory activity; activity at 5 µM ([1]; 5 μm): 98%; activity at 25 µM ([1]; 25 μm): 92%; activity at 50 µM ([1]; 50 μm): 84%; Ki ([2]; 2% DMSO, no detergent, 100 μM through 300 μM substrate, Dixon plot, read-out: Ki for inhibition of amidolytic activity of HLE): ~300 µM; Ki ([2]; Dixon and Cornish-Bowden plots, FIGS. 3-5, read-out: apparent K1, inhibition of amidolysis): > 300 µM; Ki (MMP-8): 25 to 50 µM
CN(C)C1C(=O)C(C(N)=O)=C(O)C2(O)C(=O)C3=C(O)c4c(O)ccc(Cl)c4C(C)(O)C3CC12 (stereo not drawn) [epi-chlorotetracycline] | – | – | – | comparably low or no potency | –
CN(C)c1ccc(O)c2c1C[C@H]1C[C@H]3[C@H](N(C)C)C(O)=C(C(N)=O)C(=O)[C@@]3(O)C(O)=C1C2=O [minocycline] | – | – | – | – | leukocyte elastase inhibitory activity, in words (leukocyte elastase): do not exhibit substantial leukocyte elastase inhibitory activity
CN(C)C1C(=O)C(C(N)=O)=C(O)C2(O)C(=O)C3=C(O)c4c(O)cccc4C(C)(O)C3C(O)C12 (centres unmarked) [oxytetracycline] | – | – | – | comparably low or no potency | –
tetracycline pyrazole [CMT-5] | 78 | 112 | 102 | comparably low or no potency | –
αhd 1-PI: the major endogenous inhibitor of human leukocyte elastase | – | – | – | – | neutrophil-mediated degradation of ECM, inhibition in words [3]: virtually completely inhibited
